Assay results: patent US20100152141A1, “COMBINATIONS COMPRISING 5HT6 MODULATORS AND CHOLINESTERASE INHIBITORS” (EPIX DELAWARE, INC, priority 2006, published 2010)

Assays:
[1] = tested on: adult male Lister hooded rats; assay: novel object discrimination (NOD) task, natural forgetting with 4 h inter-trial interval; type: in vivo, rat
Protocol: NOD testing was performed as described by King et al. (2004 Neuropharmacol. 47 195), and used five separate groups (n=12) of adult male Lister hooded rats (145-235 g). Within each group rats were tested on 3-4 occasions (at one-week intervals) to receive all possible treatment combinations and serve as their own controls.

5-HT6 receptor = 5-HT6 receptor (Homo sapiens, UniProt P50406); assay: 5-HT6 receptor affinity (Ki) of Compound A; type: binding
Sequence of 5-HT6 receptor (P50406 whole entry): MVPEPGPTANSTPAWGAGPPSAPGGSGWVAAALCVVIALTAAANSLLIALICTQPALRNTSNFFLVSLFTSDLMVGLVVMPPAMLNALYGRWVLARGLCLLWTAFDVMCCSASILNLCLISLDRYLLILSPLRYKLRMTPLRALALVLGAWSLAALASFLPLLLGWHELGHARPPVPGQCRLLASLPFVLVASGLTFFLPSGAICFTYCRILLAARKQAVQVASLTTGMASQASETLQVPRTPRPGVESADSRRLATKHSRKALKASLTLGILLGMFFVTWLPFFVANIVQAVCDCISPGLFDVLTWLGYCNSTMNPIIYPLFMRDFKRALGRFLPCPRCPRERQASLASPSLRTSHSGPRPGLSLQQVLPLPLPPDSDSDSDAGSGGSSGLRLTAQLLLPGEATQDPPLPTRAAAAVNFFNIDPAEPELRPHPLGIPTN

Row | Structure (SMILES) | natural forgetting (discrimination of novel versus familiar object) ([1]; Compound A 0.3 mg/kg i.p. combined with sub-efficacious dose (0.1 mg/kg i.p.) of Aricept, novel versus familiar p<0.01) | natural forgetting (discrimination of novel versus familiar object) ([1]; Compound A 0.3 mg/kg i.p. given alone) | natural forgetting (discrimination of novel versus familiar object) ([1]; Compound A 1 mg/kg i.p. combined with sub-efficacious dose (0.1 mg/kg i.p.) of Aricept, novel versus familiar p<0.05) | natural forgetting (discrimination of novel versus familiar object) ([1]; Compound A 1 mg/kg i.p. given alone) | natural forgetting (discrimination of novel versus familiar object) ([1]; Compound A 3 mg/kg i.p., 40 min pre-treatment, 4 h inter-trial interval, novel versus familiar p<0.001) | discrimination ratio versus vehicle ([1]; Compound A 3 mg/kg i.p., 40 min pre-treatment, p<0.05 repeated measures ANOVA) | natural forgetting (discrimination of novel versus familiar object) ([1]; Compound A 10 mg/kg i.p., 40 min pre-treatment, 4 h inter-trial interval, novel versus familiar p<0.01) | discrimination ratio versus vehicle ([1]; Compound A 10 mg/kg i.p., 40 min pre-treatment, p<0.05 repeated measures ANOVA) | Ki (5-HT6 receptor) | natural forgetting (discrimination of novel versus familiar object) ([1]; Aricept 0.1 mg/kg i.p., 20 min pre-treatment, 4 h inter-trial interval) | natural forgetting (discrimination of novel versus familiar object) ([1]; Aricept 0.3 mg/kg i.p., 20 min pre-treatment, 4 h inter-trial interval) | discrimination ratio versus vehicle ([1]; Aricept 1 mg/kg i.p., 20 min pre-treatment) | natural forgetting (discrimination of novel versus familiar object) ([1]; Aricept 1 mg/kg i.p., 20 min pre-treatment, 4 h inter-trial interval, novel versus familiar p<0.001)
1 | COc1cc(Cl)cc(C(C)Nc2cc(N3CCNCC3)ccc2S(C)(=O)=O)c1OC.Cl (stereo not shown) [Compound A, [1-(5-Chloro-2,3-dimethoxy-phenyl)-ethyl]-(2-methanesulfonyl-5-piperazin-1-yl-phenyl)-amine hydrochloride] | restored discrimination | lacked significant effect | restored discrimination | lacked significant effect | prevented this natural forgetting | increased the discrimination ratio from vehicle levels | prevented this natural forgetting | increased the discrimination ratio from vehicle levels | 4 nM | – | – | – | –
2 | COc1cc2c(cc1OC)C(=O)C(CC1CCN(Cc3ccccc3)CC1)C2 (stereo not shown) [Aricept, donepezil, reference compound] | – | – | – | – | – | – | – | – | – | lacked effect | lacked effect | without significantly increasing the discrimination ratio | prevented natural forgetting
